Data taken from patent US20060074243A1, “Hydroxamic acid and amide compounds and their use as protease inhibitors” (Pharmacia Corporation, priority 2002, published 2006).

What was measured:
Test in all cases: In vitro MMP inhibition analysis (fluorogenic peptide substrate cleavage), Ki
Type in all cases: biochemical
Human recombinant MMP-14 = molecular target: T1, Human recombinant MMP-14 (Homo sapiens, UniProt P50281)
T1 construct: The catalytic domain enzyme was expressed in E. coli inclusion bodies, solubilized in urea; made in house
Method: (§1) Several compounds and salts were analyzed in an in vitro assay to determine their ability to inhibit the MMP cleavage of peptide substrates. Inhibition constant (Ki) were calculated from the assayed compound-MMP interactions.
(§2) Human recombinant MMP-1, MMP-2, MMP-9, MMP-13, and MMP-14 were used in this assay. All enzymes were prepared in Assignee's laboratories following usual laboratory procedures. Protocols for the preparation and use of these enzymes are available in the scientific literature. See, e.g., Enzyme Nomenclature (Academic Press, San Diego, Calif., 1992) (and the citations therein). See also, Frije et al., J. Biol. Chem., 26(24), 16766-73 (1994).
The MMP-14 full length cDNA was provided by Dr. Gregory Goldberg of Washington University (St. Louis, Mo.). The catalytic domain enzyme was expressed in E. coli inclusion bodies, solubilized in urea, purified on a preparative […] reverse phase HPLC column, and then refolded in the presence of zinc acetate and purified for use.
(§3) All MMPs were activated using 4-aminophenylmercuric acetate (“APMA”, Sigma Chemical, St. Louis, Mo.) or trypsin. MMP-9 also was activated using human recombinant MMP-3 (purified in Assignee's laboratory following standard cloning and purification techniques).
(§4) The following fluorogenic, methoxycoumarin-containing polypeptide substrate (I) was used in the MMP inhibition assays: MCA-ArgProLeuGlyLeuDpaAlaArgGluArgNH2 (I) “MCA” is 7-methoxycoumarin-4-yl acetyl. Substrate (I) was prepared Assignee's laboratory. In the absence of MMP inhibitory activity, the substrate is cleaved at the Gly-Leu peptide bond. This cleavage separates the highly fluorogenic peptide from the 2,4-dinitrophenyl quencher, thus resulting in increase of fluorescent intensity.
(§5) The stock solutions of the assayed compounds and salts were prepared in […] (DMSO). These stock solutions were diluted in Buffer A (100 mM Tris-HCl, 100 mM NaCl, 10 mM CaCl2, 0.05% polyoxyethylene 23 lauryl ether, pH 7.5) to obtain solutions with different compound concentrations, i.e., assay solutions with different concentrations of the assayed […] compound. The experiment controls contained the same amount of Buffer A/DMSO as the assayed sample, but contained none of the tested compound or salt.
(§6) The assays from which the Ki determinations were made were performed as follows. The assayed compound samples were incubated in separate wells of untreated white polystyrene plates (Nunc Nalgene International, Rochester, N.Y.), and analyzed on a Tecan SpectraFlour Plus plate reader. The excitation wavelength was 330 nm, and the emission wavelength—420 nm. All samples (assayed compounds and controls) were incubated in separate plate wells at room temperature for 1 hr in the presence of 4 μM of MMP substrate (I). In the absence of MMP inhibitory activity, substrate (I) was cleaved at the Gly-Leu bond resulting in an increase of relative fluorescence. Inhibition was observed as a reduced rate of this increase in relative fluorescence. […] This protocol is a modification of method by Knight et al., FEBS Lett., 296(3), 263-266 (1992). Apparent inhibitory constants were determined by non-linear regression of reaction velocity as a function of inhibitor and enzyme concentration using Morrison's equation, as described by Kuzmic, Anal. Biochem. 286, 45-50 (2000). Modifications were made in the non-linear regression method to allow a common control reaction rate and effective enzyme concentration to be shared between all dose-response relationships on a given assay plate. Since the substrate concentration was chosen to be at or below the Km, the apparent Ki's from this analysis were reported as Ki's without correction for the influence of substrate.
(§7) The above protocols were used to determine Ki constants for the compounds in Examples 2-35 above. All Ki values in Table 1 are given in nM units.

Human recombinant MMP-9 = molecular target: T2, Human recombinant MMP-9 (Homo sapiens, UniProt P14780)
T2 construct: made in house; host or cells: MMP-9-transfected HT1080 cells (spent media)
Method: as §1, §2
The MMP-9 proenzyme was purified by gelatin Sepharose chromatography from spent media of MMP-9-transfected HT1080 cells provided by Dr. Howard Welgus of Washington University (St. Louis, Mo.).
as §3, §4, §5, §6, §7

Human recombinant MMP-1 = molecular target: T3, Human recombinant MMP-1 (Homo sapiens, UniProt P03956)
T3 construct: made in house; host or cells: MMP-1-transfected HT-1080 cells (spent media)
T3 sequence (P03956 100-469): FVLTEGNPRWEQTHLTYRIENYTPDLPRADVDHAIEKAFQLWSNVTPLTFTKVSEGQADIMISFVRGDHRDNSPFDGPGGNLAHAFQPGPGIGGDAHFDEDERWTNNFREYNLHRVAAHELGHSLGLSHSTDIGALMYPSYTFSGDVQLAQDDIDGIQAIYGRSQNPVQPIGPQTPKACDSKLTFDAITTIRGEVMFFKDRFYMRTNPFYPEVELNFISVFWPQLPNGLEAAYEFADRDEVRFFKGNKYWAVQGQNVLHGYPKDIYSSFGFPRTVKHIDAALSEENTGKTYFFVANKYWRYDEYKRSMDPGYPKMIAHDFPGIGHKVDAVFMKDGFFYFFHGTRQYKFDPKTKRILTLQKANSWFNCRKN
Method: as §1, §2
The MMP-1 proenzyme was purified from the spent media of MMP-1-transfected HT-1080 cells provided by Dr. Harold Welgus of Washington University (St. Louis, Mo.). The protein was purified on a zinc chelating column.
as §3, §4, §5, §6, §7

Human recombinant MMP-2 = molecular target: T4, Human recombinant MMP-2 (Homo sapiens, UniProt P08253)
T4 construct: made in house; host or cells: MMP-2-transfected p2AHT2 cells
T4 sequence (P08253 110-660): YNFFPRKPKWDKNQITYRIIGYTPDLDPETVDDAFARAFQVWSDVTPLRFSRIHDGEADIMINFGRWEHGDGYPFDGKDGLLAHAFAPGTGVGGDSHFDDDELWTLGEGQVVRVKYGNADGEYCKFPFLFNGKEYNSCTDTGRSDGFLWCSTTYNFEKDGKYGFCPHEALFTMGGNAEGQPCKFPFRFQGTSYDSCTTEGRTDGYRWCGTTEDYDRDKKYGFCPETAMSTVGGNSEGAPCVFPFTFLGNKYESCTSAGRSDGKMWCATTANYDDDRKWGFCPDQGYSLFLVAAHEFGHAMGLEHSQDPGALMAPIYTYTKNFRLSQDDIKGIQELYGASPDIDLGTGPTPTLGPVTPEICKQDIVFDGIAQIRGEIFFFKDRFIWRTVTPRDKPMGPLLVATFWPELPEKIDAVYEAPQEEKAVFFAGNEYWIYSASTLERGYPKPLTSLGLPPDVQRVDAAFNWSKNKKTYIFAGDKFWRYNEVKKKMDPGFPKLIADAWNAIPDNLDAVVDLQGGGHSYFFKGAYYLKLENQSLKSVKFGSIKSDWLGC
Method: as §1, §2
The MMP-2 proenzyme was purified by gelatin Sepharose chromatography from MMP-2-transfected p2AHT2 cells provided by Dr. Gregory Goldberg of Washington University (St. Louis, Mo.).
as §3, §4, §5, §6, §7

T2 sequence (P14780 107-707 limits assumed): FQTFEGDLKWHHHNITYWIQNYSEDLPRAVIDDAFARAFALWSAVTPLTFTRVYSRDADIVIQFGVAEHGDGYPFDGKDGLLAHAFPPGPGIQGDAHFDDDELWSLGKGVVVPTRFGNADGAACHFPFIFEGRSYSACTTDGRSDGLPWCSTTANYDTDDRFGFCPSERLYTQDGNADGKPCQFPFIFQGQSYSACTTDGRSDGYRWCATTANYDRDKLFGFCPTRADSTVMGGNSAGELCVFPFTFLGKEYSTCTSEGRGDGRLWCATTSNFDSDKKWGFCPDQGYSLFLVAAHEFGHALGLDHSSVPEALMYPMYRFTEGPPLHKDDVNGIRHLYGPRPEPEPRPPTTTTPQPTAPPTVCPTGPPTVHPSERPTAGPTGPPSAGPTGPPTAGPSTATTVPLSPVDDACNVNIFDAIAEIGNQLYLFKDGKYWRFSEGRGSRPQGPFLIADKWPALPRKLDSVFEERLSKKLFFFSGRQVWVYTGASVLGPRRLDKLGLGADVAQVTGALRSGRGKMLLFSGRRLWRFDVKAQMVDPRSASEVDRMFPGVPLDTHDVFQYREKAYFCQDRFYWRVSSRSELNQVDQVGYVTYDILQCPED

Ki (Human recombinant MMP-14; Table 1) [nM] | Ki (Human recombinant MMP-9; Table 1) [nM] | Ki (Human recombinant MMP-1; Table 1) [nM] | Ki (Human recombinant MMP-2; Table 1) [nM] | Ki (Human recombinant MMP-14; Table 2) [nM] | Ki (Human recombinant MMP-9; Table 2) [nM] | Ki (Human recombinant MMP-1; Table 2) [nM] | Ki (Human recombinant MMP-2; Table 2) [nM] | SMILES
237 | 0.08 | 1750 | 0.04 | – | – | – | – | COCCN1CCC(C(=O)NO)(S(=O)(=O)c2ccc(-c3ccc(CCC(C)(F)F)cc3)cc2)CC1 [Example 63]
> 10000 | 0.677 | > 10000 | 1.65 | – | – | – | – | CCN1CCC(C(=O)NO)(S(=O)(=O)c2ccc(-c3cnc(CCC(C)(F)F)cn3)cc2)CC1 [Example 64]
5970 | 0.375 | > 10000 | 0.952 | – | – | – | – | COCCN1CCC(C(=O)NO)(S(=O)(=O)c2ccc(-c3cnc(CCC(C)(F)F)cn3)cc2)CC1 [Example 65]
4260 | 0.31 | > 10000 | 0.79 | – | – | – | – | CC(F)(F)CCc1cnc(-c2ccc(S(=O)(=O)C3(C(=O)NO)CCN(C4CC4)CC3)cc2)cn1 [Example 66]
831 | 0.19 | 8470 | 0.14 | – | – | – | – | COCCN1CCC(C(=O)NO)(S(=O)(=O)c2ccc(-c3ccc(CCC(C)(F)F)cn3)cc2)CC1 [Example 67]
235 | 0.142 | 231 | 0.0611 | – | – | – | – | O=C(NO)C1(S(=O)(=O)c2ccc(-c3ccc(OC(F)(F)C(F)F)cc3)cc2)CCOCC1 [Example 68]
708 | 0.719 | 3530 | 0.322 | – | – | – | – | O=C(NO)C1(S(=O)(=O)c2ccc(-c3ccc(CCCC(F)(F)F)cn3)cc2)CCOCC1 [Example 69]
– | – | – | – | 159 | 0.112 | 1740 | 0.0835 | CCCCOc1cnc(-c2ccc(S(=O)(=O)C3(C(=O)NO)CCOCC3)cc2)cn1 [Example 73]
– | – | – | – | 585 | 3.4 | 1630 | 0.304 | O=C(NO)C1(S(=O)(=O)c2ccc(-c3ccc(OCCCC(F)(F)F)cc3)cc2)CCOCC1 [Example 74]
– | – | – | – | 621 | 1.01 | 3970 | 0.674 | CCCCCc1ccc(-c2ccc(S(=O)(=O)C3(C(=O)NO)CCOCC3)cc2)cc1 [Example 75]
– | – | – | – | 3480 | 114 | 9630 | 10.3 | CC(=O)Nc1cnc(-c2ccc(S(=O)(=O)C3(C(=O)NO)CCOCC3)cc2)cn1 [Example 76]
– | – | – | – | 741 | 0.867 | 2170 | 0.146 | CCN1CCC(C(=O)NO)(S(=O)(=O)c2ccc(-c3ccc(OCCCCO)cc3)cc2)CC1 [Example 118]
– | – | – | – | 171 | 0.15 | 1770 | 0.093 | CCCCOc1ccc(-c2ccc(S(=O)(=O)C3(C(=O)NO)CCN(CCOC)CC3)cc2)cc1 [Example 119]
– | – | – | – | 311 | 0.336 | 2460 | 0.191 | CCCCOc1ccc(-c2ccc(S(=O)(=O)C3(C(=O)NO)CCN(C4CC4)CC3)cc2)cc1 [Example 120]
– | – | – | – | 1880 | 57.9 | 1600 | 46.8 | O=C(NO)C1(S(=O)(=O)c2ccc(-c3ncccn3)cc2)CCOCC1 [Example 121]
– | – | – | – | 315 | 4.84 | 3580 | 5.67 | CCc1cnc(-c2ccc(S(=O)(=O)C3(C(=O)NO)CCOCC3)cc2)nc1 [Example 122]
– | – | – | – | 6230 | 191 | > 2500 | 32.9 | CCc1csc(Nc2ccc(-c3ccc(S(=O)(=O)C4(C(=O)NO)CCOCC4)cc3)cc2)n1 [Example 124]
– | – | – | – | 905 | 1.92 | 1240 | 0.18 | O=C(NO)C1(S(=O)(=O)c2ccc(-c3ccc(-n4cncn4)cc3)cc2)CCOCC1 [Example 126]
– | – | – | – | 414 | 1.89 | 1010 | 0.147 | O=C(NO)C1(S(=O)(=O)c2ccc(-c3ccc(-n4ccnc4)cc3)cc2)CCOCC1 [Example 127]
– | – | – | – | > 2500 | 4.36 | > 2500 | 5.08 | O=C(NO)C1(S(=O)(=O)c2ccc(-c3cnc(NCC4CC4)cn3)cc2)CCOCC1 [Example 128]
